IC50 data for 21 compounds are collected here from patent publication US9174980B2, “Heterocyclic compounds as inhibitors of leukotriene production” (Boehringer Ingelheim International GmbH, priority 2012, dated 2015).

As usually defined, the IC50 is the midpoint of a concentration-inhibition curve.

Assay [1] concerns the target T1, recombinant human FLAP protein (Homo sapiens, UniProt P20292).
T1 construct: made in house; host or cells: Sf9 insect cells (membrane fraction, 100,000 x g pellet)
T1 sequence (P20292 1-161): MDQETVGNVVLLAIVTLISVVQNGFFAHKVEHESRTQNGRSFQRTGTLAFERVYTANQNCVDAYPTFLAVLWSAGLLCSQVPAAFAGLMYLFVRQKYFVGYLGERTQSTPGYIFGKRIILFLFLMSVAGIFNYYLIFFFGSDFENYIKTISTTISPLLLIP
The assay can be described thus: FLAP binding assay (Scintillation Proximity Assay, displacement of [125I]L-691,831). As to conditions: read-out: Human FLAP SPA Binding (IC50 nM). Put shortly:
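Membranes from sf9 cells expressing recombinant human FLAP (5 μg/well) on WGA SPA beads were incubated with compound and 0.08 nM [125I]L-691,831 in Tris pH 7.5 binding buffer, shaken 2 h. Displacement read by scintillation proximity; non-specific binding set with 10 μM unlabelled L-691,831.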

The test system of assay [2] is synthesis of LTB4 in human whole blood. The assay can be described thus: Human whole blood assay (calcimycin-stimulated LTB4 synthesis). The conditions noted are these: Homo sapiens; read-out: Human Whole Blood LTB4 Assay for FLAP (IC50 nM). In kind it is cell-based. Put shortly:
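Heparinized human whole blood was preincubated with compound for 15 min at 37° C, then stimulated with calcimycin (20 μM final, in PBS pH 7.4) for a further 30 min at 37° C. Plasma LTB4 was quantified by antibody-based homogeneous time-resolved fluorescence.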

`COC(=O)c1cc(-c2ccc(F)cc2)c(C2(c3ccc(-c4cnc(N)nc4)cc3)CCC2)[nH]1` [Example 166, methyl 5-{1-[4-(2-aminopyrimidin-5-yl)phenyl]cyclobutyl}-4-(4-fluorophenyl)-1H-pyrrole-2-carboxylate]: the 50% inhibitory concentration (IC50) amounted to 72 nM in assay [1] and 3600 nM in assay [2].
Taken in the same sequence, the figures for `COC(=O)c1ccc(C2(c3ccc(-c4cnc(N)nc4)cc3)CCC2)[nH]1` [Example 167, methyl 5-[1-[4-(2-aminopyrimidin-5-yl)phenyl]cyclobutyl]-1H-pyrrole-2-carboxylate] were 59 nM and 3200 nM.
Taken in the same sequence, the figures for `CC(C)C(C)(c1ccc(-c2cnc(N)nc2)nc1)c1nc(-c2cnn(C)c2)co1` (stereo not drawn) [Example 168, 5-(5-{3-methyl-2-[4-(1-methyl-1H-pyrazol-4-yl)-1,3-oxazol-2-yl]butan-2-yl}pyridin-2-yl)pyrimidin-2-amine] were 87 nM and 390 nM.
For the compound `Nc1ncc(-c2ccc(C3(c4cccn4S(=O)(=O)c4ccccc4)CCC3)cc2)cn1` [Example 169, 5-(4-{1-[1-(phenylsulfonyl)-1H-pyrrol-2-yl]cyclobutyl}phenyl)pyrimidin-2-amine], the IC50 in assay [1] was found to be 110 nM; in assay [2], 2000 nM.
Taken in the same sequence, the figures for `CN(C)C(=O)Cn1cc(-c2cnc(C(C)(c3ccc(-c4cnc(N)nc4)cc3)C3CC3)s2)cn1` (stereo not drawn) [Example 170, 2-[4-[2-[1-[4-(2-aminopyrimidin-5-yl)phenyl]-1-cyclopropyl-ethyl]thiazol-5-yl]pyrazol-1-yl]-N,N-dimethyl-acetamide] were 10 nM and 120 nM.
Regarding `Cn1cc(-c2coc(C(C)(c3ccc(-c4cnc(N)nc4)cc3)C3CC3)n2)cn1` (stereo not drawn) [Example 171, 5-(4-{1-cyclopropyl-1-[4-(1-methyl-1H-pyrazol-4-yl)-1,3-oxazol-2-yl]ethyl}phenyl)pyrimidin-2-amine], the IC50 in assay [1] came to 7.4 nM; in assay [2], 140 nM.
On the same counts, the results for `CN(C)CCn1cc(-c2cnc(C(C)(c3ccc(-c4cnc(N)nc4)cc3)C3CC3)s2)cn1` (stereo not drawn) [Example 172, 5-{4-[1-cyclopropyl-1-(5-{1-[2-(dimethylamino)ethyl]-1H-pyrazol-4-yl}-1,3-thiazol-2-yl)ethyl]phenyl}pyrimidin-2-amine] are 8.2 nM and 73 nM.
Turning to `Cn1cc(-c2cnc(C(C)(c3ccc(-c4cnc(N)nc4)cc3)C3CC3)s2)cn1` (stereo not drawn) [Example 173, 5-(4-{1-cyclopropyl-1-[5-(1-methyl-1H-pyrazol-4-yl)-1,3-thiazol-2-yl]ethyl}phenyl)pyrimidin-2-amine], the IC50 in assay [1] is 7.7 nM; in assay [2], 89 nM.
Consider `COC(=O)c1[nH]cc(Br)c1C1(c2ccc(-c3cnc(N)nc3)cc2)CCC1` [Example 174, methyl 3-{1-[4-(2-aminopyrimidin-5-yl)phenyl]cyclobutyl}-4-bromo-1H-pyrrole-2-carboxylate], for which the IC50 in assay [1] is 17 nM; in assay [2] it was 650 nM.
As to `CC(c1ccc(-c2cnc(N)nc2)cc1)(c1cc(O)n(-c2ccccc2)n1)C1CC1` (stereo not drawn) [Example 175, 3-{1-[4-(2-aminopyrimidin-5-yl)phenyl]-1-cyclopropylethyl}-1-phenyl-1H-pyrazol-5-ol], the results for the half-inhibitory concentration (IC50) in assay [1] and in assay [2] were 10 nM and 1100 nM, respectively.
As for `COC(=O)c1cc(-c2cnn(C)c2)c(C2(c3ccc(-c4cnc(N)nc4)cc3)CCC2)[nH]1` [Example 176, methyl 5-{1-[4-(2-aminopyrimidin-5-yl)phenyl]cyclobutyl}-4-(1-methyl-1H-pyrazol-4-yl)-1H-pyrrole-2-carboxylate], the half-maximal inhibitory concentration (IC50) in assay [1] came out at 150 nM; in assay [2], 2900 nM.
Take `COC(=O)c1cc(Br)c(C2(c3ccc(-c4cnc(N)nc4)cc3)CCC2)n1C` [Example 177, methyl 5-{1-[4-(2-aminopyrimidin-5-yl)phenyl]cyclobutyl}-4-bromo-1-methyl-1H-pyrrole-2-carboxylate]: the IC50 in assay [1] stood at 42 nM; in assay [2] it was 1800 nM.
Take `Nc1ncc(-c2ccc(C3(c4ncc(-c5cn[nH]c5)s4)CCC3)cc2)cn1` [Example 178, 5-(4-{1-[5-(1H-pyrazol-4-yl)-1,3-thiazol-2-yl]cyclobutyl}phenyl)pyrimidin-2-amine]: the values for the IC50 in assay [1] and in assay [2] were 2.9 nM and 81 nM, respectively.
Take `COC(=O)c1cc(-c2ccc(F)nc2)c(C2(c3ccc(-c4cnc(N)nc4)cc3)CCC2)[nH]1` [Example 179, methyl 5-{1-[4-(2-aminopyrimidin-5-yl)phenyl]cyclobutyl}-4-(6-fluoropyridin-3-yl)-1H-pyrrole-2-carboxylate]: the 50% inhibitory concentration (IC50) in assay [1] worked out at 200 nM; in assay [2], 4400 nM.
Turning to `CN(C)C(=O)Cn1cc(-c2cnc(C3(c4ccc(-c5cnc(N)nc5)cc4)CCC3)s2)cn1` [Example 180, 2-[4-(2-{1-[4-(2-aminopyrimidin-5-yl)phenyl]cyclobutyl}-1,3-thiazol-5-yl)-1H-pyrazol-1-yl]-N,N-dimethylacetamide], the half-maximal inhibitory concentration (IC50) in assay [1] worked out at 8.9 nM; in assay [2] it was 270 nM.
Consider `CN(C)CCn1cc(-c2cnc(C3(c4ccc(-c5cnc(N)nc5)cc4)CCC3)s2)cn1` [Example 181, 5-{4-[1-(5-{1-[2-(dimethylamino)ethyl]-1H-pyrazol-4-yl}-1,3-thiazol-2-yl)cyclobutyl]phenyl}pyrimidin-2-amine], for which the IC50 in assay [1] is 6.1 nM; in assay [2] it was 110 nM.
As for `COC(=O)c1cc(-c2cnn(C)c2)c(C2(c3ccc(-c4cnc(N)nc4)cc3)CCC2)n1C` [Example 182, methyl 5-{1-[4-(2-aminopyrimidin-5-yl)phenyl]cyclobutyl}-1-methyl-4-(1-methyl-1H-pyrazol-4-yl)-1H-pyrrole-2-carboxylate], the IC50 in assay [1] was found to be 38 nM; in assay [2] it was 1400 nM.
Consider `CN(C)C(=O)Cn1cc(-c2cc(C(C)(c3ccc(-c4cnc(N)nc4)cc3)C3CC3)no2)cn1` (stereo not drawn) [Example 183, 2-[4-(3-{1-[4-(2-aminopyrimidin-5-yl)phenyl]-1-cyclopropylethyl}-1,2-oxazol-5-yl)-1H-pyrazol-1-yl]-N,N-dimethylacetamide], for which the IC50 in assay [1] is 9 nM; in assay [2], 200 nM.
Taken in the same sequence, the figures for `CC(C)(O)Cn1cc(-c2cc(C(C)(c3ccc(-c4cnc(N)nc4)cc3)C3CC3)no2)cn1` (stereo not drawn) [Example 184, 1-[4-(3-{1-[4-(2-aminopyrimidin-5-yl)phenyl]-1-cyclopropylethyl}-1,2-oxazol-5-yl)-1H-pyrazol-1-yl]-2-methylpropan-2-ol] were 8.4 nM and 97 nM.
As to `Cn1cc(-c2coc([C@@](C)(c3ccc(-c4cnc(N)nc4)cc3)C3CC3)n2)cn1` [Example 185, 5-[4-[(1R)-1-cyclopropyl-1-[4-(1-methylpyrazol-4-yl)oxazol-2-yl]ethyl]phenyl]pyrimidin-2-amine], the 50% inhibitory concentration (IC50) amounted to 3.3 nM in assay [1] and 54 nM in assay [2].
Taken in the same sequence, the figures for `Cn1cc(-c2coc([C@](C)(c3ccc(-c4cnc(N)nc4)cc3)C3CC3)n2)cn1` [Example 186, 5-[4-[(1S)-1-cyclopropyl-1-[4-(1-methylpyrazol-4-yl)oxazol-2-yl]ethyl]phenyl]pyrimidin-2-amine] were 87 nM and 2000 nM.
